Experiments:
Format in all cases: biochemical
[1] = target: T1, cathepsin L (Homo sapiens, UniProt P07711); experiment: Cathepsin L enzyme inhibition in vitro (kinetic fluorescence assay); conditions: cathepsin L isolated from human liver vs calpain I
T1 construct: cathepsin L—isolated from human liver (Calbiochem #219402); purchased Calbiochem 219402; host or cells: human liver (tissue-derived)
Procedure, shortened: (§1)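 Inhibition is measured at room temperature in cysteine-containing MES buffer, pH 6.0, by continuous fluorescence at 460 nm. Cathepsin S (0.5 nM) uses 20 μM Z-Val-Val-Arg-AMC; L (1 nM) and B (0.25 nM) use Z-Phe-Arg-AMC at 2 and 100 μM respectively.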

[2] = target: T2, cathepsin S (Homo sapiens, UniProt P25774); experiment: Cathepsin S enzyme inhibition in vitro (kinetic fluorescence assay); conditions: recombinant human cathepsin S vs calpain I
T2 construct: purchased Calbiochem 219343; host or cells: E. coli
T2 sequence (P25774 115-331): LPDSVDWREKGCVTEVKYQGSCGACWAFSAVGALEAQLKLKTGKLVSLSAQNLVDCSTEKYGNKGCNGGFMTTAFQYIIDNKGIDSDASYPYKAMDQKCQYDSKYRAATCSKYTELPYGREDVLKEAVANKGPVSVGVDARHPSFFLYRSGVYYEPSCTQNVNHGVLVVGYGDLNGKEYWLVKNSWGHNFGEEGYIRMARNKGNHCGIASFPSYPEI
Procedure, shortened: as §1

[3] = target: T3, cathepsin K (Homo sapiens, UniProt P43235); experiment: Cathepsin K enzyme inhibition in vitro (kinetic fluorescence assay); conditions: cathepsin K activated from recombinant human procathepsin K vs calpain I
T3 construct: purchased Calbiochem 342001; host or cells: E. coli
T3 sequence (P43235 115-329): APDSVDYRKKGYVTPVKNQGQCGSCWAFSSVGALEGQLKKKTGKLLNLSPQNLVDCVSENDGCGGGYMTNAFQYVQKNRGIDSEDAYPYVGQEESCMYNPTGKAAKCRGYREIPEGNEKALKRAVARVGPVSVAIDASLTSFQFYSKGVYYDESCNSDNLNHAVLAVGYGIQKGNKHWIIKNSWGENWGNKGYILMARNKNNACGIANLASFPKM
Procedure: (§2) The following solutions and buffers were employed: • HBS (for 40 ml): 800 μl M HEPES; 2.16 ml 100 mM KCl; 4.8 ml 1M NaCl; 3.59 ml 5% glucose; 60 μl μM MgSO4; 400 μl 100 mM Na pyruvate, 28.19 ml water; pH 7.2-7.5. • lysis buffer (for 20 ml): 400 μl M Tris pH 8.2; 2.74 ml 1M NaCl; 520 μl 0.5M EDTA; 2 ml 10% triton X-100; 0.8 ml (=1:25) CompletePlus (1 tablet/2 ml H2O); 200 μl 100 mM Pefabloc; 13.34 ml water, pH 8.2. • TBST (10×) (for 1 l): 100 mM Tris (12.1 g); 1.5M NaCl (87 g); 1% Tween 20 (10 g), adjusted to pH 8. I Enzyme Inhibition In Vitro: • Testing for blockade of the corresponding enzymic activities was carried out by means of kinetic fluorescence assays (excitation 390 nm, emission 460 nm). • Apparent Ki values were calculated from the experimentally determined IC50 values by the Cheng-Prussoff relation assuming a reversible competitive enzyme inhibition. The Km values of the substrates used under the assay conditions indicated above were: 90 μM (Z-Phe-Arg-AMC, cathepsin B), 10 μM (Z-Gly-Pro-Arg-AMC, cathepsin K), 2 μM (Z-Phe-Arg-AMC, cathepsin L), and 30 μM (Z-Val-Val-Arg-AMC, cathepsin S). • The indicated Ki values are averages of the inhibition constants calculated on the basis of 2 to 4 independent dose-effect plots.
(§3) The following assays were used: • 1. Calpain I: • 20 nM calpain-I—isolated from human erythrocytes (Calbiochem #208713), 100 μM Suc-Leu-Tyr-AMC (Bachem #1-1355) as substrate in buffer with 62 mM imidazole, 0.3 mM CaCl2, 0.10% CHAPS, 0.05% BSA, 1 mM DTT at pH 7.3 and room temperature. • 2. Cathepsin B: • 0.25 nM cathepsin B—isolated from human liver (Calbiochem #219362), 100 μM Z-Phe-Arg-AMC (Bachem #I-1160) as substrate 50 mM MES, 2 mM EDTA, 0.05% Brij 35, 2.5 mM L-cysteine, pH 6.0, room temperature. • 3. Cathepsin K: • 3 nM cathepsin K—activated from recombinant human procathepsin K from E. coli (Calbiochem #342001), 10 μM Z-Gly-Pro-Arg-AMC (Biomol #P-142) as substrate in 50 mM MES, 2 mM EDTA, 0.05% Brij 35, 2.5 mM L-cysteine, pH 6.0, room temperature. • 4. Cathepsin L: • 1 nM cathepsin L—isolated from human liver (Calbiochem #219402), 2 μM Z-Phe-Arg-AMC (Bachem #1-1160) as substrate in 50 mM MES, 2 mM EDTA, 0.05% Brij 35, 2.5 mM L-cysteine, pH 6.0, room temperature. • 5. Cathepsin S: • 0.5 nM recombinant human cathepsin S from E. coli (Calbiochem #219343), 20 μM Z-Val-Val-Arg-AMC (Bachem #1-1540) as substrate in 50 mM MES, 2 mM EDTA, 0.05% Brij 35, 2.5 mM L-cysteine, pH 6.0, room temperature. • The results of the in vitro determination are indicated in Table 1. The following abbreviations are used in Table 1: • The “Calpain activity” column, ++ stands for a calpain Ki (Ki(calpain)) of ≦40 nM and + means: 40 nM<Ki(Calpain)≦100 nM. • The “Sel. cat. B” column indicates the Ki(cathepsin B)/Ki(calpain) ratio. In this connection, ++ means a Ki(cathepsin B)/Ki(calpain) ratio of ≧30 and + means 10≦Ki(cathepsin B)/Ki(calpain)<30. • The “Sel. cat. K” column indicates the Ki(cathepsin K)/Ki(calpain) ratio. In this connection, ++ means a Ki(cathepsin K)/Ki(calpain) ratio of ≧30 and + means 10≦Ki(cathepsin K)/Ki(calpain)<30. • The “Sel. cat. L” column indicates the Ki(cathepsin L)/Ki(calpain) ratio. In this connection, ++ means a Ki(cathepsin L)/Ki(calpain) ratio of ≧50 and + means 30≦Ki(cathepsin L)/Ki(calpain)<50. • The “Sel. cat. S” column indicates the Ki(cathepsin S)/Ki(calpain) ratio. In this connection, ++ means a Ki(cathepsin S)/Ki(calpain) ratio of ≧100 and + means 50≦Ki(cathepsin S)/Ki(calpain)<100.

[4] = target: T4, cathepsin B (Homo sapiens, UniProt P07858); experiment: Cathepsin B enzyme inhibition in vitro (kinetic fluorescence assay); conditions: cathepsin B isolated from human liver vs calpain I
T4 construct: cathepsin B—isolated from human liver (Calbiochem #219362); purchased Calbiochem 219362; host or cells: human liver (tissue-derived)
Procedure: as §2, §3

T1 sequence (P07711 114-333): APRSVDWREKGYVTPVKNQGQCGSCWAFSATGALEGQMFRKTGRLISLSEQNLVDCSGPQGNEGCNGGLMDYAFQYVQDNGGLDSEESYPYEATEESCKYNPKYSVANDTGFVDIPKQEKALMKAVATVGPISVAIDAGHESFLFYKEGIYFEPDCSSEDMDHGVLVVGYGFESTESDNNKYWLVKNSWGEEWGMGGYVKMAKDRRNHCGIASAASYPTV

SMILES: NC(=O)C(=O)C(Cc1ccccc1)NC(=O)c1cccnc1-n1ccc(-c2ccc3c(c2)CCO3)n1 (stereo not shown) [Example 75, N-(3-Amino-1-benzyl-2,3-dioxopropyl)-2-[3-(2,3-dihydrobenzo[b]furan-5-yl)-1H-pyrazol-1-yl]nicotinamide]
- Sel cat. L: Ki(cathepsin L)/Ki(calpain) ratio [1]: ++ (++ means a Ki(cathepsin L)/Ki(calpain) ratio of ≧50)
- Sel cat. S: Ki(cathepsin S)/Ki(calpain) ratio [2]: ++ (++ means a Ki(cathepsin S)/Ki(calpain) ratio of ≧100)
- Sel cat. K: Ki(cathepsin K)/Ki(calpain) ratio [3]: + (+ means 10≦Ki(cathepsin K)/Ki(calpain)<30)

SMILES: NC(=O)C(=O)C(CC1CCCCC1)NC(=O)c1cccnc1-n1ccc(-c2ccccc2)n1 (stereo not shown) [Example 66, N-[3-Amino-1-(cyclohexylmethyl)-2,3-dioxopropyl]-2-(3-phenyl-1H-pyrazol-1-yl)nicotinamide]
- Sel cat. L: Ki(cathepsin L)/Ki(calpain) ratio [1]: + (+ means 30≦Ki(cathepsin L)/Ki(calpain)<50)
- Sel cat. S: Ki(cathepsin S)/Ki(calpain) ratio [2]: ++ (++ means a Ki(cathepsin S)/Ki(calpain) ratio of ≧100)
- Sel cat. K: Ki(cathepsin K)/Ki(calpain) ratio [3]: + (+ means 10≦Ki(cathepsin K)/Ki(calpain)<30)

SMILES: NC(=O)C(=O)C(Cc1ccccc1)NC(=O)c1cccnc1-n1ccc(C2CCCCC2)n1 (stereo not shown) [Example 192, N-[3-Amino-2,3-dioxo-1-(phenylmethyl)propyl]-2-(3-cyclohexyl-1H-pyrazol-1-yl)pyridine-3-carboxamide]
- Sel cat. L: Ki(cathepsin L)/Ki(calpain) ratio [1]: ++ (++ means a Ki(cathepsin L)/Ki(calpain) ratio of ≧50)
- Sel cat. S: Ki(cathepsin S)/Ki(calpain) ratio [2]: ++ (++ means a Ki(cathepsin S)/Ki(calpain) ratio of ≧100)
- Sel cat. K: Ki(cathepsin K)/Ki(calpain) ratio [3]: + (+ means 10≦Ki(cathepsin K)/Ki(calpain)<30)

SMILES: CN1CCN(c2ccc(-c3ccn(-c4ncccc4C(=O)NC(Cc4ccccc4)C(=O)C(N)=O)n3)cc2)CC1 (stereo not shown) [Example 68, N-(3-Amino-1-benzyl-2,3-dioxopropyl)-2-{3-[4-(4-methylpiperazin-1-yl)phenyl]-1H-pyrazol-1-yl}nicotinamide]
- Sel cat. S: Ki(cathepsin S)/Ki(calpain) ratio [2]: ++ (++ means a Ki(cathepsin S)/Ki(calpain) ratio of ≧100)
- Sel cat. K: Ki(cathepsin K)/Ki(calpain) ratio [3]: + (+ means 10≦Ki(cathepsin K)/Ki(calpain)<30)

SMILES: NC(=O)C(=O)C(Cc1cccs1)NC(=O)c1cccnc1-n1ccc(-c2ccccc2)n1 (stereo not shown) [Example 40, N-[3-Amino-2,3-dioxo-1-(2-thienylmethyl)propyl]-2-(3-phenyl-1H-pyrazol-1-yl)pyridine-3-carboxamide]
- Sel cat. L: Ki(cathepsin L)/Ki(calpain) ratio [1]: ++ (++ means a Ki(cathepsin L)/Ki(calpain) ratio of ≧50)
- Sel cat. S: Ki(cathepsin S)/Ki(calpain) ratio [2]: ++ (++ means a Ki(cathepsin S)/Ki(calpain) ratio of ≧100)
- Sel cat. B: Ki(cathepsin B)/Ki(calpain) ratio [4]: + (+ means 10≦Ki(cathepsin B)/Ki(calpain)<30)

SMILES: Cl.NC(=O)C(=O)C(Cc1ccccc1)NC(=O)c1cccnc1-n1ccc(-c2ccc(N3CCOCC3)cc2)n1 (stereo not shown) [Example 29, N-(3-Amino-1-benzyl-2,3-dioxopropyl)-2-[3-(4-morpholin-4-ylphenyl)-1H-pyrazol-1-yl]nicotinamide hydrochloride]
- Sel cat. L: Ki(cathepsin L)/Ki(calpain) ratio [1]: ++ (++ means a Ki(cathepsin L)/Ki(calpain) ratio of ≧50)
- Sel cat. S: Ki(cathepsin S)/Ki(calpain) ratio [2]: ++ (++ means a Ki(cathepsin S)/Ki(calpain) ratio of ≧100)
- Sel cat. K: Ki(cathepsin K)/Ki(calpain) ratio [3]: + (+ means 10≦Ki(cathepsin K)/Ki(calpain)<30)

SMILES: N#Cc1cnc(-n2ccc(-c3ccccc3F)n2)c(C(=O)NC(Cc2ccccc2)C(=O)C(N)=O)c1 (stereo not shown) [Example 188, N-[3-Amino-2,3-dioxo-1-(phenylmethyl)propyl]-5-cyano-2-[3-(2-fluorophenyl)-1H-pyrazol-1-yl]pyridine-3-carboxamide]
- Sel cat. L: Ki(cathepsin L)/Ki(calpain) ratio [1]: ++ (++ means a Ki(cathepsin L)/Ki(calpain) ratio of ≧50)
- Sel cat. K: Ki(cathepsin K)/Ki(calpain) ratio [3]: ++ (++ means a Ki(cathepsin K)/Ki(calpain) ratio of ≧30)

SMILES: NC(=O)C(=O)C(Cc1ccccc1)NC(=O)c1cccnc1-n1ccc(-c2cccc3cnccc23)n1 (stereo not shown) [Example 156, N-[3-Amino-2,3-dioxo-1-(phenylmethyl)propyl]-2-(3-isoquinolin-5-yl-1H-pyrazol-1-yl)pyridine-3-carboxamide]
- Sel cat. L: Ki(cathepsin L)/Ki(calpain) ratio [1]: + (+ means 30≦Ki(cathepsin L)/Ki(calpain)<50)
- Sel cat. S: Ki(cathepsin S)/Ki(calpain) ratio [2]: ++ (++ means a Ki(cathepsin S)/Ki(calpain) ratio of ≧100)
- Sel cat. B: Ki(cathepsin B)/Ki(calpain) ratio [4]: + (+ means 10≦Ki(cathepsin B)/Ki(calpain)<30)

From patent publication US7799809B2, “Carboxamide compounds and their use as calpain inhibitors” (Abbott GmbH & Co. KG, priority 2006, dated 2010)
